# Measured values reported in PMC3164656, “Burkholderia cenocepacia BC2L-C Is a Super Lectin with Dual Specificity and Proinflammatory Activity” (PLoS Pathogens, 2011).
# Several values for one entry are separate records, joined by “and”; a condition that tells them apart may be missing. Equal values may be shown once.
# Legend:
# BC2L-C-ct [1] = biological target: T1, BC2L-C-ct (Burkholderia cenocepacia, UniProt B4EH86); assay: SPR on monosaccharide-activated surfaces, C-terminal domain; assay type: binding; conditions: CM5 chip, Biot-PAA-monosaccharide, 25°C
# T1 sequence (B4EH86 158-272): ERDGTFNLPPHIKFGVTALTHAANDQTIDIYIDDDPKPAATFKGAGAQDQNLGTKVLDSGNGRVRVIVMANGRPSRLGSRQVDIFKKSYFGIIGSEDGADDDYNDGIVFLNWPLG
# BC2L-C-ct [2] = biological target: T1, BC2L-C-ct; assay: Isothermal titration microcalorimetry, binding of saccharides to BC2L-C-ct; conditions: ITC, 25°C; for Kd / n (stoichiometry): 20 mM Tris pH 7.5
# BC2L-C-ct [3] = biological target: T1, BC2L-C-ct; assay: Glycan array (Consortium for Functional Glycomics), C-terminal domain; assay type: binding; conditions: Alexa-labelled lectin 200 µg/mL, array version 3.2
# Source text: Purified BC2L-C lectin samples were labeled with Alexa Fluor 488-TFP (Invitrogen, CA) according to manufacturer's instructions and re-purified on a D-Salt polyacrylamide desalting column (Pierce, Rockford IL). Alexa-labeled proteins were used for glycan-array screening with standard procedure of the Core H of the Consortium for Functional Glycomics (Emory University, Atlanta, GA, http://www.functionalglycomics.org). The screening of the printed glycan microarray chip (version 3.2, with 377 glycans from a library of natural and synthetic glycans) was performed with a concentration of BC2L-C of 200 µg/mL dissolved in 20 mM HEPES, 140 mM NaCl, 5 mM CaCl2, pH 7.5 for all samples.
# BC2L-C [4] = biological target: T2, BC2L-C (Burkholderia cenocepacia, UniProt B4EH86); assay: Isothermal titration microcalorimetry, binding of saccharides to whole BC2L-C; conditions: ITC, 25°C; for Kd / n (stoichiometry): 20 mM Tris pH 7.5
# T2 sequence (B4EH86 1-272): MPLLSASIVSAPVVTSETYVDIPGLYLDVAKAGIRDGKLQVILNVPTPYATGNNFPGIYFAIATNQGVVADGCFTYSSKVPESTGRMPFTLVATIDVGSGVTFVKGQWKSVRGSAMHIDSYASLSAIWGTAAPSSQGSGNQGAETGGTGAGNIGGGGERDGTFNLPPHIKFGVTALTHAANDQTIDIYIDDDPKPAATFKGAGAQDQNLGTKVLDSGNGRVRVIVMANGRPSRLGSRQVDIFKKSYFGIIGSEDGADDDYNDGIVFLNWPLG
# BC2L-C [5] = biological target: T2, BC2L-C; assay: SPR on monosaccharide-activated surfaces, whole lectin; assay type: binding; conditions: CM5 chip, Biot-PAA-monosaccharide, 25°C
compound,measurement,setting,value
"OC[C@H]1OC(O)[C@@H](O)[C@@H](O)[C@@H]1O (stereo partly drawn) [D-Man, D-mannose]",binding of the C-terminal domain to sugar-modified surface (SPR),BC2L-C-ct [1],binds only to mannose-coated chips
same,-TΔS,BC2L-C-ct [2],7.6 kcal/mol
same,-ΔH,BC2L-C-ct [2],13.6 kcal/mol
same,Kd,BC2L-C-ct [2],37.4 µM
same,n (stoichiometry),BC2L-C-ct [2],0.50
same,n (stoichiometry),BC2L-C-ct [2]; listed as Man,~0.5
same,recognition on glycan array,BC2L-C-ct [3],"shortest fragment recognized, albeit not efficiently"
same,-TΔS,BC2L-C [4],8.25 kcal/mol
same,Kd,BC2L-C [4],21.8 µM
same,n (stoichiometry),BC2L-C [4],0.57
same,binding of the lectin to sugar-modified surface (SPR),BC2L-C [5],interacts strongly
"C=CCO[C@H]1O[C@H]([C@@H](O)CO)[C@@H](O)[C@H](O[C@H]2O[C@H]([C@@H](O)CO)[C@@H](O)[C@H](O)[C@@H]2O)[C@@H]1O [Diheptose, allyl L-glycero-α-D-manno-heptopyranosyl-(1→3)-L-glycero-α-D-manno-heptopyranoside]",-TΔS,BC2L-C-ct [2],3.82 kcal/mol
same,Kd,BC2L-C-ct [2],88 µM and 88.1 µM
same,n (stoichiometry),BC2L-C-ct [2],0.48
CC(=O)N[C@H]1C(O)O[C@H](CO)[C@@H](O[C@@H]2O[C@H](CO)[C@H](O)[C@H](O)[C@H]2O[C@@H]2O[C@@H](C)[C@@H](O)[C@@H](O)[C@@H]2O)[C@@H]1O[C@@H]1O[C@@H](C)[C@@H](O)[C@@H](O)[C@@H]1O (stereo partly drawn) [Lewis Y],-TΔS,BC2L-C [4],3.87 kcal/mol
same,-ΔH,BC2L-C [4],9.78 kcal/mol
same,Kd,BC2L-C [4],47.5 µM
same,n (stoichiometry),BC2L-C [4],1 and 1.01
"OC[C@H]1O[C@H](OC[C@H]2OC(O)[C@@H](O)[C@@H](O[C@H]3O[C@H](CO)[C@@H](O)[C@H](O)[C@@H]3O)[C@@H]2O)[C@@H](O)[C@@H](O)[C@@H]1O (stereo partly drawn) [Trimannose, Manα1-3(Manα1-6)Man]",-TΔS,BC2L-C-ct [2],23.3 kcal/mol
same,-ΔH,BC2L-C-ct [2],29.45 kcal/mol
same,Kd,BC2L-C-ct [2],28.8 µM
same,n (stoichiometry),BC2L-C-ct [2],0.22
C[C@H](O)[C@@H](O)[C@@H](O)[C@H](O)C=O [fucose],binding of the lectin to sugar-modified surface (SPR),BC2L-C [5],interacts strongly
O=C[C@H](O)[C@@H](O)[C@@H](O)[C@H](O)CO [galactose],binding of the lectin to sugar-modified surface (SPR),BC2L-C [5],not by galactose
"CO[C@H]1O[C@H]([C@@H](O)CO)[C@@H](O)[C@H](O)[C@@H]1O [αMeHept, Methyl L-glycero-α-D-manno-heptopyranoside]",-TΔS,BC2L-C-ct [2],4.9 kcal/mol
same,-ΔH,BC2L-C-ct [2],10.1 kcal/mol
same,Kd,BC2L-C-ct [2],150 µM
same,n (stoichiometry),BC2L-C-ct [2],0.56
"COC1O[C@H](CO)[C@@H](O)[C@H](O)[C@@H]1O (stereo partly drawn) [αMeMan, α-methyl-mannoside]",-TΔS,BC2L-C-ct [2],6.93 kcal/mol
same,-ΔH,BC2L-C-ct [2],13.1 kcal/mol
same,Kd,BC2L-C-ct [2],27.6 µM
same,n (stoichiometry),BC2L-C-ct [2],0.52
same,-TΔS,BC2L-C [4],11.1 kcal/mol
same,-ΔH,BC2L-C [4],17.6 kcal/mol
same,Kd,BC2L-C [4],18.3 µM
same,n (stoichiometry),BC2L-C [4],0.49
Manα1–2Man,recognition on glycan array,BC2L-C-ct [3],recognised
Manα1–3Man,recognition on glycan array,BC2L-C-ct [3],recognised
Manα1–6Man,recognition on glycan array,BC2L-C-ct [3],recognised
